Reference: patent US12480848B2, “Crack sensor, preparation method therefor, and application thereof in micro-force measurement” (QILU UNIVERSITY OF TECHNOLOGY (SHANDONG ACADEMY OF SCIENCES), priority 2022, dated 2025)
Read-outs that look alike come from different tables or passages of the source.

Test system: cardiomyocytes (CM)
Assay: Drug evaluation: CM contractility (contractile force, beating rate) measured with the Ag/CNT-PDMS crack sensor
Details: for EC50: Cardiomyocyte

CC(C)NCC(O)c1ccc(O)c(O)c1 (stereo not shown) [isoproterenol]
EC50 (read-out: apparent EC50 of CM beating rate (dose-response curve)): 0.0714 µM | EC50 (read-out: apparent EC50 of CM contractile force (dose-response curve)): 0.0926 µM | contractile force and beating rate (concentration increased from 0.1 nM to 1 μM): gradually increased | CM contractility (when the concentration reached 100 nM): became saturated
